# Where two headings read alike, the source gives them in different places.
# Legend:
# IGR37 = assay: Cell viability assay (PrestoBlue), 72h, last line of Table 2; conditions: Homo sapiens, IGR-37, 72 h
# Experimental: (§6) Cells were grown at 37°C in 5% CO2 (10% for Hermes 3A) and were regularly checked for mycoplasma contamination. […] Melanoma IGR cell lines (IGR37 and IGR39) were grown in RPMI w/o HEPES (Gibco, Invitrogen) supplemented with 15% FCS and gentamycin.
# (§7) To determine the IC50 (half maximal inhibitory concentration) of these cells to various inhibitors, cell viability assays were performed.
# (§8) After 72h of treatment with different concentrations of the compounds, cells were treated with PrestoBlue reagent according to the manufacturer's instructions. The absorbance per well was measured with a Cellinsight CX5 microplate reader. Data were analyzed using Prism9 statistical software.
# MM029 = assay: Cell viability assay (PrestoBlue), 72h; conditions: Homo sapiens
# Experimental: as §6, §7, §8
# melanoma cells 501mel = assay: Cell cycle analysis by flow cytometry (PI); assay type: cell-based, human; conditions: IC50 concentrations
# Experimental: For cell cycle analysis, 2×10^6 cells were seeded in 6 well plates. […] After 2 washes with cold PBS, cells were incubated with RNAse A and PI for 1h in the dark, before being analyzed on a BD LSRFortessaTM Flow Cytometer. Data were analysed with FlowJo software.
# melanoma cells = assay: Apoptosis by flow cytometry (AnnexinV-APC); assay type: cell-based, human; conditions: IC50 concentrations, Annexin V-APC
# Experimental: After 48h of incubation, cells were rinsed and incubated with AnnexinV-APC (BD Biosciences). Cell proliferation and apoptosis were detected on a BD LSRFortessaTM Flow Cytometer. Data were analyzed with FlowJo software. To define slow proliferating or apoptotic cells: it was considered that slow proliferating cells represented the 30% of cells with the highest concentration of CellTrace Violet signal in the DMSO control. […] For apoptotic cells, it was considered the 20% of cells with the highest signal of AnnexinV-APC in the DMSO control.
# MM074^VemuR = assay: Cell viability assay (PrestoBlue), 72h; conditions: Homo sapiens
# Experimental: Cells were grown at 37°C in 5% CO2 (10% for Hermes 3A) and were regularly checked for mycoplasma contamination. MM patient-derived short-term melanoma cultures (MM011, MM074, MM117, MM029, MM047, MM099) were grown in HAM-F10 (Gibco, Invitrogen) supplemented with 10% Fetal Calf Serum (FCS), 25 mM HEPES, 5.2 mM GLUTAMAX and penicillin-streptomycin. Melanoma cell lines 501mel and SKmel28 were grown in RPMI w/o HEPES (Gibco, Invitrogen) supplemented with 10% FCS and gentamycin. Vemurafenib-resistant cells (501melVemuR and MM074VemuR) were additionally supplemented with 1.5 µM of vemurafenib. Melanoma IGR cell lines (IGR37 and IGR39) were grown in RPMI w/o HEPES (Gibco, Invitrogen) supplemented with 15% FCS and gentamycin.
# as §7, §8
# MM099 = assay: Cell viability assay (PrestoBlue), 72h; conditions: Homo sapiens
# Experimental: as §6, §7, §8
# [1] = test system: Sk-mel-28 melanoma xenografts; conditions: 1.2 mg/kg intravenous
# Experimental: (§1) Female athymic nu/nu mice (Harlan Laboratories Models, S.L. Barcelona, Spain or Envigo, Spain) were utilized for all experiments. Animal were housed in individually ventilated cages Sealsafe® Plus, Techmplast S.P.A.), up to ten per cage on a 12-hour light-dark cycle at 21-23 °C and 40-60 % humidity. Mice were allowed free access to irradiated standard rodent diet (Tecklad 2914C) and sterilized water. Animals were acclimated for at least 5 days prior to tumor implantation with a tumor cell suspension.
# (§2) The cell line used are: • 501mel • IGR-37 • SK-Mel-28 • WM-266-4 • LOX-IMVI • 501mel^Vemur
# (§3) In xenograft studies with cell lines: • Tumour volume was calculated using the equation […], where a: length (longest diameter) and b: width (shortest diameter) were measured in mm by using digital caliper (Fowler Sylvac, S235PAT). Tumour dimensions and body weights were recorded 2-3 times per week starting from the first day of treatment. • When tumors reached ca. 150-250 mm^3, tumour bearing animals (N = 8-10/group) were randomly allocated into the treatment groups, based on body weight and tumour measurements by using NewLab Oncology Software (version 2.25.06.00). • Comparison between median tumour volume of treated and placebo groups was used for evaluation of the antitumoural efficacy. • Animals were euthanized when their tumours reached ca. 1,500 mm^3 and/or severe necrosis was seen.
# (§4) Treatments producing >20 % lethality and/or 20% net body weight loss were considered toxic.
# (§5) In these experiments, PM14 and Compound IA, as well as placebo, were intravenously administered once per week for 3 consecutive weeks, on days 0, 7 and 14, whenever it was possible.
# Table 6. Tumour volume evaluation in Sk-mel-28 melanoma xenografts with PM14 and Compound IA and placebo.
# [2] = test system: WM-266-4 melanoma xenografts; conditions: 1.2 mg/kg intravenous
# Experimental: as §1, §2, §3, §4, §5
# Table 7. Tumour volume evaluation in WM-266-4 melanoma xenografts with PM14 and Compound IA and placebo.
# [3] = test system: melanoma cell cultures or cell lines; assay: Clonogenic assay; assay type: cell-based, human; conditions: 48h at IC50 concentrations, then 10 days without drug
# Experimental: Based on the cell viability assays conducted above, the efficacy of lurbinectedin, PM14 or Compound IA on melanoma cell proliferation was investigated. Initially, a clonogenic assay was performed. Cells were drug-treated at IC50 concentrations during 48h before seeding 1×10^3 or 2×10^3 cells in 6-well plates without drug, wherein they grew for 10 days to allow for colony formation. Afterwards, cells were fixed for 10min with 4% formaldehyde solution, washed once with PBS and stained with Crystal Violet solution 0.2% for 15 min. The wells were finally washed twice with deionized water, air dried, scanned and analyzed with Fiji software to count the number of colonies.
# 501 mel^Vemur cell line = conditions: 1.2 mg/kg intravenous
# Experimental: as §1, §2, §3, §4, §5
# MM074 melanospheres = assay: Melanosphere viability (CellTiterGlo); assay type: cell-based, human; conditions: 72h, doses equivalent to 5×IC50
# Experimental: MM074 proliferative/differentiated cell line were seeded (5×10^4 cells) in ultra-low attachment hydrogel-layered 96 well plates in KO DMEM medium supplemented with 20% KSR, AANE, 2 mM Glutamax, Penicillin/Streptomycin and 100 uM Beta-mercaptoethanol. To allow for melanosphere formation, cells were left to grow for 4 days before drug treatment.
# To analyze melanosphere viability after drug treatment, cells were treated with CellTiterGlo reagent (Promega) according to the manufacturer's instructions. Luminescence signals were measured with a Centro XS LB 960 microplate reader (Berthold).
compound,measurement,setting,value
"COc1c(C)cc2c(c1O)[C@@H]1[C@@H]3[C@@H]4SC[C@]5(N[C@H](CO)Cc6c5[nH]c5ccccc65)C(=O)OC[C@@H](c5c6c(c(C)c(OC(C)=O)c54)OCO6)N3[C@@H](O)[C@H](C2)N1C [PM14, ecubectedin]",IC50,IGR37,0.78 nM
same,IC50,MM029,1.4 nM
same,cell cycle progression,melanoma cells 501mel,notable blockade
same,apoptosis,melanoma cells,induction of apoptosis
same,IC50,MM074^VemuR,1.63 nM
same,IC50,MM099,1.41 nM
same,Median Tumour Volume,"[1]; days 0, 7 and 14, day 0",152.8 mm^3
same,Median Tumour Volume,"[1]; days 0, 7 and 14, day 2",184.4 mm^3
same,Median Tumour Volume,"[1]; days 0, 7 and 14, day 4",235.4 mm^3
same,Median Tumour Volume,"[1]; days 0, 7 and 14, day 7",326.2 mm^3
same,Median Tumour Volume,"[1]; days 0, 7 and 14, day 9",401.5 mm^3
same,Median Tumour Volume,"[1]; days 0, 7 and 14, day 11",510.6 mm^3
same,Median Tumour Volume,"[1]; days 0, 7 and 14, day 14",632.6 mm^3
same,Median Tumour Volume,"[1]; days 0, 7 and 14, day 16",671.9 mm^3
same,Median Tumour Volume,"[1]; days 0, 7 and 14, day 18",822.8 mm^3
same,Median Tumour Volume,"[1]; days 0, 7 and 14, day 21",884.4 mm^3
same,Median Tumour Volume,"[1]; days 0, 7 and 14, day 23","1,012.5 mm^3"
same,Median Tumour Volume,"[1]; days 0, 7 and 14, day 25","1,204.2 mm^3"
same,Median Tumour Volume,"[1]; days 0, 7 and 14, day 28","1,516.7 mm^3"
same,Median Tumour Volume,"[2]; days 0, 7 and 14, day 0",169.5 mm^3
same,Median Tumour Volume,"[2]; days 0, 7 and 14, day 3",115.1 mm^3
same,Median Tumour Volume,"[2]; days 0, 7 and 14, day 5",118.2 mm^3
same,Median Tumour Volume,"[2]; days 0, 7 and 14, day 7",136.6 mm^3
same,Median Tumour Volume,"[2]; days 0, 7 and 14, day 10",133.1 mm^3
same,Median Tumour Volume,"[2]; days 0, 7 and 14, day 12",109.8 mm^3
same,Median Tumour Volume,"[2]; days 0, 7 and 14, day 14",138.4 mm^3
same,Median Tumour Volume,"[2]; days 0, 7 and 14, day 17",129.6 mm^3
same,Median Tumour Volume,"[2]; days 0, 7 and 14, day 19",119.2 mm^3
same,Median Tumour Volume,"[2]; days 0, 7 and 14, day 21",150.4 mm^3
same,Median Tumour Volume,"[2]; days 0, 7 and 14, day 24",137.2 mm^3
same,Median Tumour Volume,"[2]; days 0, 7 and 14, day 26",146.9 mm^3
same,Median Tumour Volume,"[2]; days 0, 7 and 14, day 28",197.6 mm^3
same,Median Tumour Volume,"[2]; days 0, 7 and 14, day 34",388.1 mm^3
same,Median Tumour Volume,"[2]; days 0, 7 and 14, day 41",727.7 mm^3
same,Median Tumour Volume,"[2]; days 0, 7 and 14, day 45","1,111.6 mm^3"
same,Median Tumour Volume,"[2]; days 0, 7 and 14, day 48","1,503.6 mm^3"
same,colony formation (number of colonies),[3],significant impact
same,Median Tumour Volume,"501 mel^Vemur cell line; days 0, 7 and 14, day 0",147.9 mm^3
same,Median Tumour Volume,"501 mel^Vemur cell line; days 0, 7 and 14, day 2",225.2 mm^3
same,Median Tumour Volume,"501 mel^Vemur cell line; days 0, 7 and 14, day 4",248.4 mm^3
same,Median Tumour Volume,"501 mel^Vemur cell line; days 0, 7 and 14, day 7",330.4 mm^3
same,Median Tumour Volume,"501 mel^Vemur cell line; days 0, 7 and 14, day 9",361 mm^3
same,Median Tumour Volume,"501 mel^Vemur cell line; days 0, 7 and 14, day 11",389.7 mm^3
same,Median Tumour Volume,"501 mel^Vemur cell line; days 0, 7 and 14, day 14",407.1 mm^3
same,Median Tumour Volume,"501 mel^Vemur cell line; days 0, 7 and 14, day 16",436.4 mm^3
same,Median Tumour Volume,"501 mel^Vemur cell line; days 0, 7 and 14, day 18",502 mm^3
same,Median Tumour Volume,"501 mel^Vemur cell line; days 0, 7 and 14, day 21",555.5 mm^3
same,Median Tumour Volume,"501 mel^Vemur cell line; days 0, 7 and 14, day 23",674.2 mm^3
same,Median Tumour Volume,"501 mel^Vemur cell line; days 0, 7 and 14, day 25",757.7 mm^3
same,Median Tumour Volume,"501 mel^Vemur cell line; days 0, 7 and 14, day 28",839.8 mm^3
same,Median Tumour Volume,"501 mel^Vemur cell line; days 0, 7 and 14, day 30",882.9 mm^3
same,Median Tumour Volume,"501 mel^Vemur cell line; days 0, 7 and 14, day 35",863.3 mm^3
same,Median Tumour Volume,"501 mel^Vemur cell line; days 0, 7 and 14, day 37",871.8 mm^3
same,Median Tumour Volume,"501 mel^Vemur cell line; days 0, 7 and 14, day 39",948.6 mm^3
same,Median Tumour Volume,"501 mel^Vemur cell line; days 0, 7 and 14, day 42",1020 mm^3
same,Median Tumour Volume,"501 mel^Vemur cell line; days 0, 7 and 14, day 44","1,295.1 mm^3"
same,Median Tumour Volume,"501 mel^Vemur cell line; days 0, 7 and 14, day 46","1,582.2 mm^3"
same,cell viability in 3D culture,MM074 melanospheres,significant cytotoxic effects
